Source: patent publication US20210017607A1, “Methods of Predicting Responsiveness to Cancer Therapies” (The University of Chicago, priority 2019, published 2021)
Values after ≈ are worked out from the molar mass of the structure shown. Where two headings read alike, the source gives them in different places.

Legend:
[1] = test system: single cell suspensions derived from Myc-CAP (STING^lo) tumors; assay: Ex vivo reconstitution assay, IFNβ ELISA; type: cell-based, mouse; conditions: for IFNβ production within supernatants: ex vivo drug treatment, 36 hours
Protocol: FIGS. 15A-15E. Differential STING pathway activation within B6-Myc (STING^hi) cell lines and BMDMs relative to Myc-CAP (STING^lo) cells. (15A, 15B) The indicated cancer cell lines and BMDMs were treated with DMXAA (mouse STING agonist) for 1 and 24 hours, respectively, and protein extracts were interrogated for cGAS/STING pathway activation with the indicated antibodies by Western blotting. Supernatants were collected from for IFNβ1 ELISA following 36 hours of treatment with DMXAA (15C, 15D). (15E) Syngeneic Myc-CAP (STING^lo) tumors were processed into single cell suspensions and used for phycoerythrin-based sorting of CD45+ cellular fractions. Equal numbers of cells from these fractions were stimulated with DMXAA. Supernatants were collected at 36 hrs for detection of IFNB1 by ELISA; n=3 independent experiments; Significance/p-values were calculated by one-way Anova (for 15C & 15E) or paired t-test (for 15D); TAM=tumor associated macrophage; s.e.=short exposure; l.e.=long exposure.
FIGS. 29A-29M. PARPi alone induces DNA DSBs, but not apoptosis even in combination with PI3Ki in Myc-CAP (STING^lo) cancer cells; PARPi/PI3Ki combination induces intracellular DNA DSBs and proportionate release of MV surface-associated DNA DSBs from B6-Myc (STINGhi) cancer cells without affecting cellular viability; PARPi/PI3K treatment activates tumor-cell extrinsic cGAS/STING pathway within TAMs in vivo via MV surface-associated DNA DSBs released from tumor cells. Myc-CAP cancer cells were treated with the indicated drugs singly or in combination for 36 hours. (29A) Cells were stained with anti-mouse specific p-γH2AX antibody and a fluorescently labeled secondary antibody for determination of DNA DSBs, which were quantified by confocal microscopy. (29B) Protein extracts from cells in 29A were analyzed for the indicated pharmacodynamic biomarkers by western blotting; (29C) Annexin V-PI staining was done to assess frequency of live cells (Annexin V^− PI^−) following drug treatment. (29D) Ultracentrifugation was utilized to purify microvesicles (MVs) from supernatants in treatment groups in (29A) and associated DNA DSBs was quantified by Nanodrop®. Independent experiments n=2. (29E) Ultracentrifugation was utilized to purify MVs from supernatants in indicated treatment groups in FIG. 17A, and associated DNA DSBs were quantified by Nanodrop®; n=2 independent experiments. (29F) Syngeneic mice were engrafted with Myc-CAP (STING^lo) cells, and tumors were harvested when the tumor volume reached 400 mm^3. Single cell suspensions of the tumors were treated with the indicated drug(s), in the presence or absence of GW4869 (MV biogenesis inhibitor). (29G) Bone marrow derived macrophage (BMDMs) were co-cultured for 30 hours with supernatants (−/+ exogenous 50 units of DNase I pre-treatment for 30 minutes) from Myc-CAP cells that were treated with the indicated drug(s) for 36 hours. (29H) cGAMP (10 μg/mL) was pre-incubated with 10 units of DNAse I or mock control for 30 minutes and then added to BMDMs for 30 hours. (29I-29L) STING^+/+/STING^−/− BMDMs were co-cultured for 36 hours with supernatants from Myc-CAP and B6-Myc cancer cells that were treated with the indicated drug(s) for 36 hours. Supernatants were collected from 29F-29L at the end of treatment and analyzed for IFNβ1 by ELISA. […] Tumor volume was recorded daily for duration of experiment. […] Significance/p-values were calculated by one-way ANOVA. […]

[2] = IC90 concentrations stated for in vitro/ex vivo drug treatments; conditions: for IC90: read-out: IC90 concentration
[3] = FIG. 38, Myc-CAP-PTEN+/+ and PTEN−/− tumor suspensions
[4] = FIG. 50, Myc-CAP-PTEN^−/− tumor suspensions
[5] = FIG. 58, ID8 ovarian cancer cells

| Structure (SMILES) | IFNβ production within supernatants [1] | IC90 [2, 3] [nM] | IC90 [2, 5] [nM] | other results |
| --- | --- | --- | --- | --- |
| Cc1ccc2c(=O)c3cccc(CC(=O)O)c3oc2c1C [DMXAA, 5,6-Dimethylxanthenone-4-acetic Acid] |  |  |  | IFN-β response within the CD45-negative tumor cell fraction ([1]; ex vivo DMXAA treatment): lack of response; fold increase in IFN-β levels within the TME ([1]; ex vivo DMXAA treatment): 11.4 fold; IC90 concentration [2, 3]: 50 µg/mL (≈ 177 µM); IC90 concentration [2, 4]: 50 µg/mL (≈ 177 µM) |
| CNCc1ccc(-c2[nH]c3cc(F)cc4c3c2CCNC4=O)cc1 [rucaparib] | not observed | 500 |  |  |
| Nc1cc(C(F)(F)F)c(-c2cc(N3CCOCC3)nc(N3CCOCC3)n2)cn1 [buparlisib] | not observed | 1000 | 1000 |  |
| COc1c(OCCCN2CCOCC2)ccc2c1N=C(NC(=O)c1cnc(N)nc1)N1CCN=C21 [copanlisib] |  |  | 100 | IC90 [2, 4]: 500 nM; IC90 ([2]; Myc-CAP-PTEN^−/− cells in vitro (FIG. 35)): 100 nM |
